Experimental data published in patent US20080038381A1, “APPLICATION OF GREEN TEA EXTRACT AND ITS MAJOR COMPONENTS IN KELOID SCAR THERAPY” (UNIVERSITY OF SOUTHERN CALIFORNIA, priority 2006, published 2008).

Tests used:
Type in all cases: cell-based, human
[1] = tested on: type I collagen expression in keloid fibroblasts co-cultured with HMC-1 cells; assay: HMC-1-stimulated type I collagen expression in co-cultured keloid fibroblasts (Western blot); conditions: pretreated 1 h, then co-culture with same density of HMC-1 cells (1:1) for 24 h
Protocol: (§1) Keloid fibroblasts (1×10^5/well) were seeded on the bottom of a 6-well plate and maintained at normal culturing conditions for at least 24 h. Different densities of HMC-1 cells were seeded on top of the monolayer of fibroblasts and co-cultured for different time intervals based on experimental purposes. To observe the effects of GTE and EGCG or various specific kinase inhibitors on type I collagen expression in keloid fibroblasts co-cultured with HMC-1 cells, fibroblasts at about 80% confluence were pretreated with different concentrations of GTE, EGCG, or various kinase inhibitors for 1 h followed by co-culturing with the same cell density of HMC-1 cells (1:1) under normal culturing conditions for indicated time periods. Cell lysates were prepared for Western blot analysis.
To determine type I collagen, and phosphorylated ERK1/2 and Akt levels, cells were solubilized in lysis buffer (50 mM Tris-HCl, pH 7.5, 150 mM NaCl, 5 mM EDTA, 200 μM Na3VO4, 50 mM NaF, 0.5% Triton X-100) supplemented with 10 mM dithiothreitol (DTT), 200 FM phenylmethylsulfonyl fluoride (PMSF) and protease inhibitor cocktails (Sigma). Total protein concentrations of whole cell lysates were determined using BioRad BCA method (PIERCE, Rockford, Ill.). Equal amounts of protein sampled from whole cell lysates were subjected to electrophoresis on 7.5%-10% sodium dodecyl sulfate (SDS)-polyacrylamide gels and electroblotted onto nitrocellulose membranes (Hybond ECL, Amersham Pharmacia). After blocking with Tris-buffered saline (TBS)/5% skim milk, the membranes were incubated overnight at 4 °C with primary antibodies against human type I collagen, total or phosphorylated ERK1/2 (Thr202/Tyr204) or Akt (Ser473). Membranes were subsequently washed, incubated with a horseradish peroxidase (HRP) conjugated secondary:antibodies (1:2000) (Pierce, Rockford, Ill.) for 1 h at room temperature, and visualized using an enhanced chemiluminescent (ECL) detection.

[2] = tested on: pro-COL1A1 and COL1A2 gene mRNA; assay: COL1A1 and COL1A2 mRNA levels by RT-PCR in co-cultured keloid fibroblasts and HMC-1 cells; conditions: pretreated 1 h, co-culture with HMC-1 cells 24 h
Protocol: as §1
Total RNA was isolated from […] using TRIZOL® Reagent (Invitrogen). RT-PCR analysis of COL1A1, COL1A2 and β-actin mRNA levels was performed using the One-step RT-PCR Kit (QIAGEN, Valencia, Calif.) with primers specific to COL1A1: forward primer 5′-[…]-3′ and reverse primer 5′-[…]-3′; primers for COL1A2: forward primer 5′-[…]-3′ and reverse primer 5′-[…]-3′ (Stefanovic et al., 2005); primers for […]1-actin: forward primer 5′-[…]-3′ and reverse primer 5′-[…]-3′. All the primers were synthesized by Microchemical Core Facility, Norris Cancer Center of University of Southern California.

[3] = tested on: type I collagen in keloid fibroblasts; assay: Basal (constitutive) type I collagen level in keloid fibroblasts (Western blot); conditions: keloid fibroblasts alone, 24 h
Protocol: Equal amount of cell lysates (100 μg) was subjected to Western blot analysis with an anti-type I collagen antibody as described in Materials and Methods. […] (c) KFs were cultured in the presence of different concentrations of GTE or EGCG for 24 h, and type I collagen levels were determined by Western blot. (d) Denssitometric analysis of results from c. […] The results represent three independent experiments and expressed as the mean ±SD.
To determine type I collagen, and phosphorylated ERK1/2 and Akt levels, cells were solubilized in lysis buffer (50 mM Tris-HCl, pH 7.5, 150 mM NaCl, 5 mM EDTA, 200 μM Na3VO4, 50 mM NaF, 0.5% Triton X-100) supplemented with 10 mM dithiothreitol (DTT), 200 FM phenylmethylsulfonyl fluoride (PMSF) and protease inhibitor cocktails (Sigma). Total protein concentrations of whole cell lysates were determined using BioRad BCA method (PIERCE, Rockford, Ill.). Equal amounts of protein sampled from whole cell lysates were subjected to electrophoresis on 7.5%-10% sodium dodecyl sulfate (SDS)-polyacrylamide gels and electroblotted onto nitrocellulose membranes (Hybond ECL, Amersham Pharmacia). […]
To find out whether GTE and EGCG have any effects on the basal level of type I collagen in keloid fibroblasts, cells were cultured in the presence of different concentrations of GTE or EGCG for 24 hours and type I collagen levels were determined by Western blot.

keloid fibroblasts = assay: Cell viability by MTT assay, keloid fibroblasts; conditions: different concentrations, 24 h, normal conditions
HMC-1 cells = assay: Cell viability by MTT assay, HMC-1 cells; conditions: different concentrations, 24 h, normal conditions
phosphorylated ERK1/2 = assay: HMC-1-stimulated phosphorylated ERK1/2 level in keloid fibroblasts (Western blot); conditions: keloid fibroblasts pretreated 1 h, co-culture 1 h
Protocol: (§2) FIG. 5 Effects of GTE and EGCG on mast cell-stimulated activation of ERK1/2 and Akt, phosphorylation of p70S6K and 4E-BP-1 in keloid fibroblasts. Keloid fibroblasts (KFs) were pretreated with different concentrations of GTE or EGCG, or various kinase inhibitors for 1 h, followed by direct co-culture with the same number of HMC-1 cells under normal culturing condition for 1 h. Equal amount of cell lysates was subjected to Western blot analysis with an antibodies against ERK1/2 (a), p38 MAPK (b), Akt, p70S6K and 4E-BP1 (c) as described in Materials and Methods. Data presented are representative of results from 3 independent experiments.
(§3) Keloid fibroblasts (1×10^5/well) were seeded on the bottom of a 6-well plate and maintained at normal culturing conditions for at least 24 h. Different densities of HMC-1 cells were seeded on top of the monolayer of fibroblasts and co-cultured for different time intervals based on experimental purposes. […]
(§4) To determine type I collagen, and phosphorylated ERK1/2 and Akt levels, cells were solubilized in lysis buffer (50 mM Tris-HCl, pH 7.5, 150 mM NaCl, 5 mM EDTA, 200 μM Na3VO4, 50 mM NaF, 0.5% Triton X-100) supplemented with 10 mM dithiothreitol (DTT), 200 FM phenylmethylsulfonyl fluoride (PMSF) and protease inhibitor cocktails (Sigma). Total protein concentrations of whole cell lysates were determined using BioRad BCA method (PIERCE, Rockford, Ill.). […]

phosphorylated p38 MAPK = assay: HMC-1-stimulated phosphorylated p38 MAPK level in keloid fibroblasts (Western blot); conditions: keloid fibroblasts pretreated 1 h, co-culture 1 h
Protocol: as §2, §3, §4

phosphorylated Akt = assay: HMC-1-stimulated phosphorylated Akt level in keloid fibroblasts (Western blot); conditions: keloid fibroblasts pretreated 1 h, co-culture 1 h
Protocol: as §2, with “experiments. Keloid fibroblasts (1×10^5/well) were seeded on the bottom of a 6-well plate and maintained at normal culturing conditions for at least 24 h. Different densities of HMC-1 cells were seeded on top of the monolayer of fibroblasts and co-cultured for different time intervals based on experimental purposes. […] Total protein concentrations of whole cell lysates were determined using BioRad BCA method (PIERCE, Rockford, Ill.). […]” for “experiments.”

p-4E-BP = assay: HMC-1-stimulated p-4E-BP level in keloid fibroblasts (Western blot); conditions: keloid fibroblasts pretreated 1 h, co-culture 1 h
Protocol: as §2, with “experiments. Keloid fibroblasts (1×10^5/well) were seeded on the bottom of a 6-well plate and maintained at normal culturing conditions for at least 24 h. Different densities of HMC-1 cells were seeded on top of the monolayer of fibroblasts and co-cultured for different time intervals based on experimental purposes. […] Total protein concentrations of whole cell lysates were determined using BioRad BCA method (PIERCE, Rockford, Ill.). […]” for “experiments.”

p-p70S6K = assay: HMC-1-stimulated p-p70S6K level in keloid fibroblasts (Western blot); conditions: keloid fibroblasts pretreated 1 h, co-culture 1 h
Protocol: as §2, §3, §4

N#CC(=C(/N)Sc1ccccc1N)/C(C#N)=C(\N)Sc1ccccc1N [U0126]
HMC-1-stimulated type I collagen expression (protein production) in keloid fibroblasts [1]: no obvious inhibitory effects

C[S+]([O-])c1ccc(-c2nc(-c3ccncc3)c(-c3ccc(F)cc3)[nH]2)cc1 (stereo not shown) [SB203580]
HMC-1-stimulated type I collagen expression (protein production) in keloid fibroblasts [1]: dose dependent inhibition

COc1cccc(-c2cc(=O)c3ccccc3o2)c1N [PD98059]
HMC-1-stimulated type I collagen expression (protein production) in keloid fibroblasts [1]: no obvious inhibitory effects

O=C(O[C@@H]1Cc2c(O)cc(O)cc2O[C@@H]1c1cc(O)c(O)c(O)c1)c1cc(O)c(O)c(O)c1 [EGCG, (−)-epigallocatechin-3-gallate]
HMC-1-stimulated type I collagen expression (protein production) in keloid fibroblasts [1]: dose-dependent reduction
HMC-1-stimulated type I collagen mRNA messages (pro-COL1A1, COL1A2) in keloid fibroblasts [2]: dose-dependent reduction
constitutive (basal) expression of type I collagen in keloid fibroblasts [3]: inhibited the constitutive expression of type I collagen in a dose-dependent manner
cell viability (MTT), keloid fibroblasts (keloid fibroblasts): No obvious changes in cell viability
cell viability (MTT), HMC-1 cells (HMC-1 cells): No obvious changes in cell viability
phosphorylated ERK1/2 level stimulated by co-culture with HMC-1 cells (phosphorylated ERK1/2): did not have any obvious inhibitory effects
phosphorylated p38 MAPK level stimulated by co-culture with HMC-1 cells (phosphorylated p38 MAPK): did not have any obvious inhibitory effects
phosphorylated Akt level stimulated by HMC-1 cells (phosphorylated Akt): dose-dependent reduction
p-4E-BP level stimulated by HMC-1 cells (p-4E-BP): dose-dependent reduction
p-p70S6K level stimulated by HMC-1 cells (p-p70S6K): dose-dependent reduction
